In patent US20240173419A1, “CDK2 DEGRADERS AND USES THEREOF” (Kymera Therapeutics, Inc., priority 2022, published 2024):

Target: T1, CDK2 (Homo sapiens, UniProt P24941)
T1 construct: endogenous in cells; host or cells: MKN1 cells
Assay: CDK2 degradation in MKN1 cells (AlphaLISA)
Assay type: cell-based
Design: key to CDK2 degradation 14 h: Mean external-Abs DC50 (nM): A (<100 nM); B (≥100-500 nM); C (>500-1000 nM); D (>1000 nM); E (not achieved)
Conditions: for CDK2 degradation 14 h: Average Dmax % / DC50 / CDK2 degradation 14 h: Mean external-Abs DC50 (nM): 14 h incubation; for DC50: read-out: CDK2 degradation 14 h: Mean external-Abs DC50
Method in brief: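 MKN1 cells (2e4/well) treated 14 h at 37° C with 11-point 1:5 dilutions (0.001 nM-10 μM, 0.1% DMSO). CDK2 in lysates quantified by AlphaLISA, no-cell background subtracted; DC50 from four-parameter logistic fit.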

Cc1cc(S(=O)(=O)N2CCC(N(C)CC3CCN(c4cccc5c4n(C)c(=O)n5C4CCC(=O)NC4=O)CC3)CC2)ccc1Nc1ncc2cc(Cl)c(=O)n(C3CCCC34CC4)c2n1 (stereo not shown) [I-359]
CDK2 degradation 14 h: Average Dmax %: A (A (>75% o)) | DC50: < 100 nM

Cc1cc(NCCOCCOCCOCCOCCCc2cccc3c2n(C)c(=O)n3C2CCC(=O)NC2=O)ccc1Nc1ncc2cc(C(F)F)c(=O)n([C@@H]3CCC[C@]3(C)O)c2n1 (stereo partly shown) [I-490]
CDK2 degradation 14 h: Average Dmax %: A (A (>75% o)) | DC50: < 100 nM

Cc1cc(S(=O)(=O)N2CCC(CN3CCN(Cc4cccc5c4n(C)c(=O)n5C4CCC(=O)NC4=O)CC3)CC2)ccc1Nc1ncc2ccc(=O)n(C3CCCC3)c2n1 (stereo not shown) [I-452]
CDK2 degradation 14 h: Average Dmax %: B (B (>50% -75%)) | DC50: < 100 nM

Cc1cc(S(=O)(=O)N[C@H](C)CO[C@H]2CC[C@H](CN3CCN(c4cccc5c4n(C)c(=O)n5C4CCC(=O)NC4=O)CC3)CC2)ccc1Nc1ncc(C(F)(F)F)c(N2CCC[C@](C)(O)C2)n1 (stereo partly drawn) [I-766, N-[(1R)-2-[4-[[4-[1-(2,6-dioxo-3-piperidyl)-3-methyl-2-oxo-benzimidazol-4-yl]piperazin-1-yl]methyl]cyclohexoxy]-1-methyl-ethyl]-4-[[4-[(3S)-3-hydroxy-3-methyl-1-piperidyl]-5-(trifluoromethyl)pyrimidin-2-yl]amino]-3-methyl-benzenesulfonamide]
DC50: < 100 nM | Dmax (MKN-1, 14 h incubation): > 75%

Cc1cc(S(=O)(=O)NC2CCN(CC3(C)CN(c4ccc(C5CCC(=O)NC5=O)c(Cl)c4)C3)CC2)ccc1Nc1ncc(C(F)(F)F)c(N2CCC[C@](C)(O)C2)n1 (stereo partly shown) [I-910]
CDK2 degradation 14 h: Average Dmax %: B (B (>50% -75%)) | DC50: 100 to 500 nM

Cc1cc(S(=O)(=O)NCCOC2CCN(CC3CCN(c4ccc5c(c4)n(C)c(=O)n5C4CCC(=O)NC4=O)CC3)CC2)ccc1Nc1ncc2cc(Cl)c(=O)n(C3CCCC3)c2n1 (stereo not shown) [I-434]
CDK2 degradation 14 h: Average Dmax %: A (A (>75% o)) | DC50: < 100 nM

Cc1cc(S(=O)(=O)NC2CCC(CN3CCN(c4ccc5c(c4)n(C4CC4)c(=O)n5C4CCC(=O)NC4=O)CC3)CC2)ccc1Nc1ncc2c(n1)N(C1CCCC(O)C1)C(=O)C21CC1 (stereo not shown) [I-947]
CDK2 degradation 14 h: Average Dmax %: A (A (>75% o)) | DC50: < 100 nM

Cc1cc(S(=O)(=O)NC(C)COC2CCC(CN3CCN(c4ccc5c(c4F)n(C)c(=O)n5C4CCC(=O)NC4=O)CC3)CC2)ccc1Nc1ncc(C(F)(F)F)c(N2CCCC(C)(O)C2)n1 (stereo not shown) [I-846]
CDK2 degradation 14 h: Average Dmax %: A (A (>75% o)) | DC50: < 100 nM

Cc1nc(S(=O)(=O)NC2CCC(CN3CCN(c4ccc(C5CCC(=O)NC5=O)c(Cl)c4)CC3)CC2)ccc1Nc1ncc(C(F)(F)F)c(N2CCCC(C)(O)C2)n1 (stereo not shown) [I-1048]
CDK2 degradation 14 h: Average Dmax %: A (A (>75% o)) | DC50: < 100 nM

Cc1cc(S(=O)(=O)N2CC(CN(C)C3CCN(c4cccc5c4n(C)c(=O)n5C4CCC(=O)NC4=O)CC3)C2)ccc1Nc1ncc2cc(Cl)c(=O)n(C3CCCC3)c2n1 (stereo not shown) [I-421]
CDK2 degradation 14 h: Average Dmax %: B (B (>50% -75%)) | DC50: 100 to 500 nM

Cc1cc(S(=O)(=O)C2CC3(CCN(CC4CCN(c5ccc6c(c5F)n(C)c(=O)n6C5CCC(=O)NC5=O)CC4)CC3)C2)ccc1Nc1ncc2c(n1)N(C1CCCC1)C(=O)N(C)C2 (stereo not shown) [I-125]
CDK2 degradation 14 h: Average Dmax %: A (A (>75% o)) | DC50: < 100 nM

Cc1cc(S(=O)(=O)N2CC3(CCC(CN4CCN(c5ccc6c(c5F)n(C)c(=O)n6C5CCC(=O)NC5=O)CC4)CC3)C2)ccc1Nc1ncc2cc(Cl)c(=O)n(C3CCCC3)c2n1 (stereo not shown) [I-824]
CDK2 degradation 14 h: Average Dmax %: D (D (<25%)) | CDK2 degradation 14 h: Mean external-Abs DC50 (nM): E

Cc1cc(S(=O)(=O)N[C@H]2C[C@H](N3CCN(CC4CCN(c5ccc6c(c5)n(C)c(=O)n6C5CCC(=O)NC5=O)CC4)CC3)C2)ccc1Nc1ncc2cc(Cl)c(=O)n(C(C)C)c2n1 (stereo partly shown) [I-203]
CDK2 degradation 14 h: Average Dmax %: A (A (>75% o)) | DC50: < 100 nM

Cc1cc(S(=O)(=O)NC2CC(N3CCN(CC4(F)CCN(c5cccc6c5n(C)c(=O)n6C5CCC(=O)NC5=O)CC4)CC3)C2)ccc1Nc1ncc(C(F)(F)F)c(N2CCCC(C)(O)C2)n1 (stereo not shown) [I-698]
CDK2 degradation 14 h: Average Dmax %: A (A (>75% o)) | DC50: < 100 nM

Cc1cc(S(=O)(=O)NC2CCC(CN3CCN(c4ccc(C5CCC(=O)NC5=O)c(C(F)(F)F)c4)CC3)CC2)ccc1Nc1ncc(C(F)(F)F)c(N2CCCC(C)(O)C2)n1 (stereo not shown) [I-1138]
CDK2 degradation 14 h: Average Dmax %: B (B (>50% -75%)) | DC50: > 1000 nM

CC1(O)CCCN(c2nc(Nc3ccc(S(=O)(=O)NC4CCC(CN5CCN(c6ccc(C7CCC(=O)NC7=O)c(F)c6)CC5)CC4)cc3C(F)(F)F)ncc2C(F)(F)F)C1 (stereo not shown) [I-1114]
CDK2 degradation 14 h: Average Dmax %: B (B (>50% -75%)) | DC50: 100 to 500 nM

Cc1cc(S(=O)(=O)C2CCC3(CC2)CN(CC2CCN(c4cccc5c4n(C)c(=O)n5C4CCC(=O)NC4=O)CC2)C3)ccc1Nc1ncc2cc(Cl)c(=O)n(C3CCCC3)c2n1 (stereo not shown) [I-66]
CDK2 degradation 14 h: Average Dmax %: A (A (>75% o)) | DC50: 100 to 500 nM

Cc1cc(S(=O)(=O)C2CC3(CCN(CC4CCN(c5ccc6c(c5)n(C)c(=O)n6C5CCC(=O)NC5=O)CC4)CC3)C2)ccc1Nc1ncc2cc(Cl)c(=O)n(C3CCCC3)c2n1 (stereo not shown) [I-57]
CDK2 degradation 14 h: Average Dmax %: A (A (>75% o)) | DC50: < 100 nM

Cc1cc(S(=O)(=O)[C@H]2CC[C@H](CN(C)C3CCN(c4cccc5c4n(C)c(=O)n5C4CCC(=O)NC4=O)CC3)CC2)ccc1Nc1ncc2ccc(=O)n(C3CCCC3)c2n1 (stereo partly shown) [I-63]
CDK2 degradation 14 h: Average Dmax %: A (A (>75% o)) | DC50: < 100 nM

Cc1cc(S(=O)(=O)C2CC3(CCN(CC4CCN(c5ccc6c(c5F)n(C)c(=O)n6C5CCC(=O)NC5=O)CC4)CC3)C2)ccc1Nc1ncc2cc(Cl)c(=O)n(C3CCOC3)c2n1 (stereo not shown) [I-129]
CDK2 degradation 14 h: Average Dmax %: C (C (>25% -50%)) | CDK2 degradation 14 h: Mean external-Abs DC50 (nM): E

Cc1cc(S(=O)(=O)NCCOCCOCCOCCOCCCc2ccc3c(c2)n(C)c(=O)n3C2CCC(=O)NC2=O)ccc1Nc1ncc2c(C)c(Br)c(=O)n(C3CCCC3)c2n1 (stereo not shown) [I-460]
CDK2 degradation 14 h: Average Dmax %: B (B (>50% -75%)) | DC50: < 100 nM

Cc1cc(S(=O)(=O)N2CCC(CN(C)C3CCN(Cc4cccc5c4n(C)c(=O)n5C4CCC(=O)NC4=O)CC3)CC2)ccc1Nc1ncc2ccc(=O)n(C3CCCC3)c2n1 (stereo not shown) [I-449]
CDK2 degradation 14 h: Average Dmax %: A (A (>75% o)) | DC50: < 100 nM

CC1(O)CCCN(c2nc(Nc3ccc(S(=O)(=O)NC4CCC(CN5CCN(c6ccc(C7CCC(=O)NC7=O)c(Cl)c6)CC5)CC4)cc3F)ncc2C(F)(F)F)C1 (stereo not shown) [I-1107]
CDK2 degradation 14 h: Average Dmax %: A (A (>75% o)) | DC50: < 100 nM

Cc1cc(S(=O)(=O)NC2CC(N3CCN(CC4CCN(c5ccc6c(c5F)n(C)c(=O)n6C5CCC(=O)NC5=O)CC4)CC3)C2)ccc1Nc1ncc2cc(Cl)c(=O)n(C3CCCC3)c2n1 (stereo not shown) [I-832]
CDK2 degradation 14 h: Average Dmax %: A (A (>75% o)) | DC50: < 100 nM

Cc1cc(S(=O)(=O)NC2CCC(CN3CCN(c4ccc(C5CCC(=O)NC5=O)cc4C)CC3)CC2)ccc1Nc1ncc(C(F)(F)F)c(N2CCCC(C)(O)C2)n1 (stereo not shown) [I-811]
CDK2 degradation 14 h: Average Dmax %: A (A (>75% o)) | DC50: < 100 nM

Cc1cc(S(=O)(=O)C2CC3(CCN(CC4CCN(c5ccc(NC6CCC(=O)NC6=O)c(F)c5)CC4)CC3)C2)ccc1Nc1ncc2cc(Cl)c(=O)n(C3CCCC3)c2n1 (stereo not shown) [I-90]
CDK2 degradation 14 h: Average Dmax %: B (B (>50% -75%)) | DC50: 100 to 500 nM

Cc1cc(S(=O)(=O)NC(C)COC2CCC(CN3CCN(c4ccc5c(c4F)n(C)c(=O)n5C4CCC(=O)NC4=O)CC3)CC2)ccc1Nc1ncc(C(F)(F)F)c(C2CCC(C)(O)CC2)n1 (racemic) [I-859]
DC50: < 100 nM

Cc1cc(S(=O)(=O)C2CC3(CCN(CC4CCN(c5ccc(NC6CCC(=O)NC6=O)cc5)CC4)CC3)C2)ccc1Nc1ncc2cc(Cl)c(=O)n(C3CCCC3)c2n1 (stereo not shown) [I-37]
CDK2 degradation 14 h: Average Dmax %: B (B (>50% -75%)) | DC50: 100 to 500 nM

Cc1cc(S(=O)(=O)NCCN2CCN(CC3CCN(c4ccc5c(c4)n(C)c(=O)n5C4CCC(=O)NC4=O)CC3)CC2)ccc1Nc1ncc2cc(Cl)c(=O)n(C(C)C)c2n1 (stereo not shown) [I-397]
CDK2 degradation 14 h: Average Dmax %: A (A (>75% o)) | DC50: < 100 nM

Cc1cc(S(=O)(=O)N[C@H](C)CO[C@H]2CC[C@H](CN3CCN(c4ccc5c(c4F)n(C)c(=O)n5C4CCC(=O)NC4=O)CC3)CC2)ccc1Nc1ncc2ccc(=O)n(C3CCCC3)c2n1 (stereo partly shown) [I-827]
CDK2 degradation 14 h: Average Dmax %: A (A (>75% o)) | DC50: < 100 nM

Cc1cc(S(=O)(=O)NCCOCCOCCCc2ccc3c(c2)n(C)c(=O)n3C2CCC(=O)NC2=O)ccc1Nc1ncc2c(n1)N(C1CCCC1)C(=O)C21CC1 (stereo not shown) [I-972]
CDK2 degradation 14 h: Average Dmax %: B (B (>50% -75%)) | DC50: < 100 nM

Cn1c(=O)n(C2CCC(=O)NC2=O)c2cccc(CCCOCCOCCOCCOCC(=O)N3CCC(Nc4ncc5cc(C(F)F)c(=O)n([C@@H]6CCC[C@]6(C)O)c5n4)CC3)c21 (stereo partly shown) [I-502]
CDK2 degradation 14 h: Average Dmax %: D (D (<25%)) | DC50: > 1000 nM

Cc1cc(S(=O)(=O)NCCOCCOCCOCCOCCCc2ccc3c(c2)n(C)c(=O)n3C2CCC(=O)NC2=O)ccc1Nc1ncc2c(n1)N(C1CCCC1)C(=O)C21CC1 (stereo not shown) [I-974]
CDK2 degradation 14 h: Average Dmax %: A (A (>75% o)) | DC50: < 100 nM

Cc1cc(S(=O)(=O)N2CCC(CN(C)C3CCN(c4cccc5c4n(C)c(=O)n5C4CCC(=O)NC4=O)CC3)CC2)ccc1Nc1ncc2c(n1)N(C1CCCC1)C(=O)C21CC1 (stereo not shown) [I-536]
CDK2 degradation 14 h: Average Dmax %: A (A (>75% o)) | DC50: < 100 nM

Cc1cc(S(=O)(=O)N[C@H]2C[C@H](N3CCN(CC4CCN(c5ccc(NC6CCC(=O)NC6=O)cc5C)CC4)CC3)C2)ccc1Nc1ncc2ccc(=O)n(C3CCCC3)c2n1 (stereo partly shown) [I-276]
CDK2 degradation 14 h: Average Dmax %: A (A (>75% o)) | DC50: < 100 nM

Cc1cc(S(=O)(=O)C2CCN(CCN3CCN(c4cccc5c4n(C)c(=O)n5C4CCC(=O)NC4=O)CC3)CC2)ccc1Nc1ncc2cc(Cl)c(=O)n(C3CCCC3)c2n1 (stereo not shown) [I-64]
CDK2 degradation 14 h: Average Dmax %: A (A (>75% o)) | DC50: < 100 nM

Cc1cc(S(=O)(=O)NC23CCC(CN4CCN(c5ccc(C6CCC(=O)NC6=O)cc5)CC4)(CC2)CC3)ccc1Nc1ncc(C(F)(F)F)c(N2CCC[C@](C)(O)C2)n1 (stereo partly shown) [I-802]
CDK2 degradation 14 h: Average Dmax %: A (A (>75% o)) | DC50: < 100 nM
